From patent EP0641858A1, “SERUM CALCIUM DEPRESSING FACTOR” (Chugai Seiyaku Kabushiki Kaisha, priority 1991, dated 1992) come the findings set out here.

Non-standard residues stand in square brackets, D forms with d. Residues, ends and D or L forms follow the SMILES beside them. *: point of attachment. Sta = CC(C)C[C@H](N)[C@@H](O)CC(=O)O; Isovaleryl = CC(C)CC(=O)*

Assay [1] concerns the target T1, serum calcium decreasing factor of pig origin (from porcine pancreas), N-terminal sequence SEQ ID NO: 1 (Sus scrofa, UniProt F1SUW2, E34Q/S46R).
T1 sequence (F1SUW2 30-268 E34Q/S46R): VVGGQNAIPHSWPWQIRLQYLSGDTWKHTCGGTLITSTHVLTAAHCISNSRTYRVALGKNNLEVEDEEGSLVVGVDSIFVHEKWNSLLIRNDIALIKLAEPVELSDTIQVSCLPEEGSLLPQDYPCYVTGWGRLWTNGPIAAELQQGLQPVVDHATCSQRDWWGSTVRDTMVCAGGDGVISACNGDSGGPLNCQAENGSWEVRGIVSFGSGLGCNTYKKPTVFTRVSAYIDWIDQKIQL
As to the kind of experiment: Effect of protease inhibitors on protease activity (azo-casein substrate, OD at 340 nm). It counts as biochemical. Here is the method:
In steps of the purification, since it was observed that a fragment which was assumed to be a degraded fragment of the serum calcium decreasing factor protein, was generated, it is assumed that this serum calcium decreasing factor has proteolytic activity. An effect of various protease inhibitors against the serum calcium decreasing factor protein of this invention was tested as follows: 1 mg/ml azo-casein was used as a substrate, incubation was conducted at temperature of 37°C for 30 min in 0.25 ml, 1 ml of 5% trichloroacetic acid was added thereto, and then the supernatant from centrifugation of the reaction products was measured for OD at 340 nm. The resulting value was used as proteolytic activity. The effect of each protease inhibitor is shown based upon a percentage where proteolytic activity of a control sample without the inhibitor is 100%.
The protease inhibitors used include phenylmethansulfonyl fluoride (PMSF), which is a serin-protease inhibitor; (4-amidinophenyl)-methanesulfonyl fluoride (APMSF), which is a trypsin-type serin-protease inhibitor; leupetin, which is a trypsin-type serin-protease-thiolprotease inhibitor; chymostatin, which is a chymotrypsin-type serinprotease inhibitor; N-[N-3-trans-carboxyoxirane-2-carbonyl)-L-leucyl]agmatine (E-64), which is a thiolprotease inhibitor; pepstatin, which is an acid protease inhibitor; trypsin inhibitors which are inhibitors of trypsin, Xa-factor, plasmin and plasmakallikrein; and aprotinin, which is an inhibitor of trypsin and kallikrein.

A short description of assay [2]: Serum calcium lowering in mice, in vivo assay. Conditions: PMSF alone administered to mice (control of Fig. 5). Here is the method: Male BALB/c mice of 4 to 6 weeks old were starved for 18 hours and 0.1M Tris-HCl buffer (pH 7.5) or 0.1M Tris-HCl buffer containing each of the three peaks dissolved therein was administered through a mouse tail vein at a dose of 100 µl per 20g of the body weight. After 4 hours, blood was drawn from the heart under ether anesthesia and serum was obtained. The serum calcium concentration was measured according to the orth-cresol phthalein complexion method.
Next, lowering of serum calcium concentration by serum calcium decreasing factor in an in vivo assay on mice was tested using serum calcium decreasing factor treated with PMSF and non-treated serum calcium decreasing factor. In the figure, open circles show the result of non-treated serum calcium decreasing factor, closed circles show the result of serum calcium decreasing factor treated with PMSF, and closed boxes show the result (control) wherein PMSF alone was administrated in an amount provided when serum calcium decreasing factor was administrated in an amount shown on the absissa.

Where [3] appears, read: inhibitor 100 µM, 1 mg/ml azo-casein, 37°C, 30 min, control without inhibitor = 100%, read-out: Activity of Protease (per Activity of Control%).

For `N=C(N)c1ccc(CS(=O)(=O)F)cc1` [APMSF, (4-amidinophenyl)-methanesulfonyl fluoride], the “inhibition of protease activity (in words)” value (from here on “inhibition”) in assay [1] (inhibitor 50 µM) is “not being inhibited”. Also, the “Activity of Protease (per Activity of Control%)” value in assay [1] (inhibitor 50 µM, 1 mg/ml azo-casein, 37°C, 30 min, control without inhibitor = 100%) stood at 107.0%.

Take `CC(C)C[C@H](NC(=O)[C@@H](NC(=O)N[C@@H](Cc1ccccc1)C(=O)O)[C@@H]1CCN=C(N)N1)C(=O)N[C@H](C=O)Cc1ccccc1` [Chymostatin]: the “inhibition” value in assay [1] (inhibitor 100 µM) is “inhibited”. Also, the remaining activity at 100 µM in assay [1] (setting [3]) was found to be 16.1%.

For the compound `CC(C)CC(NC(=O)C1OC1C(=O)O)C(=O)NCCCCN=C(N)N` [E-64, N-[N-3-trans-carboxyoxirane-2-carbonyl)-L-leucyl]agmatine], the “inhibition” value in assay [1] (inhibitor 2.5 µg/ml) is “not being inhibited”. Besides, the remaining activity at 2.5 µg/mL in assay [1] (inhibitor 2.5 µg/ml, 1 mg/ml azo-casein, 37°C, 30 min, control without inhibitor = 100%, read-out: Activity of Protease (per Activity of Control%)) turned out to be 108%.

On to `CC(=O)N[C@@H](CC(C)C)C(=O)N[C@@H](CC(C)C)C(=O)N[C@H](C=O)CCCNC(=N)N` [Leupeptin], for which the “inhibition” value in assay [1] (inhibitor 100 µM) is “partially inhibited”. The remaining activity at 100 µM in assay [1] (setting [3]) came out at 86.8%.

As for `O=S(=O)(F)Cc1ccccc1` [PMSF, phenylmethansulfonyl fluoride], the “lowering of serum calcium” value in assay [2] was “did not lower serum calcium”. The “inhibition” value in assay [1] (inhibitor 1 mM) is “inhibited”. For the same compound, the “Activity of Protease (per Activity of Control%)” value in assay [1] (inhibitor 1 mM, 1 mg/ml azo-casein, 37°C, 30 min, control without inhibitor = 100%) is 8.8%.

Turning to `CC(C)CC(=O)N[C@H](C(=O)N[C@H](C(=O)N[C@@H](CC(C)C)[C@@H](O)CC(=O)N[C@@H](C)C(=O)N[C@@H](CC(C)C)[C@@H](O)CC(=O)O)C(C)C)C(C)C` [Pepstatin] (Isovaleryl-VV[Sta]A[Sta]-OH), in assay [1] (inhibitor 100 µM), the “inhibition” value is “partially inhibited”. The remaining activity at 100 µM in assay [1] (setting [3]) amounted to 67.9%.
